Assay results published in patent US7709636B2, “Pyrazole sulfonylurea compound and herbicide” (Nissan Chemical Industries, Ltd., priority 2004, dated 2010).

What was measured:
Echinochloa crus-galli [1] = assay: Herbicidal effect test in submerged condition by treatment before weed-generation (1); assay type: in vivo; details: 0.64 g/a, water surface treated on day of sowing, 3 weeks after treatment
Method in brief: (§1)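 Pre-emergence water-surface application of diluted wettable-powder formulation at a predetermined rate, same day as sowing, in flooded alluvial soil (4 cm water) with transplanted 2.5-leaf rice. Grown 3 weeks at 25 to 30° C in greenhouse; rated 0–5 by herbicidal rate.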

Monochoria vaginalis [2] = assay: as above; assay type: in vivo; details: 0.64 g/a, water surface treated on day of sowing, 3 weeks after treatment
Method in brief: as §1

Scirpus juncoides [3] = assay: as above; assay type: in vivo; details: 0.64 g/a, water surface treated on day of sowing, 3 weeks after treatment
Method in brief: as §1

Echinochloa crus-galli [4] = assay: Herbicidal effect test in submerged condition by treatment during weed-growth stage (1); assay type: in vivo; details: 0.64 g/a, treated at 1st to 2nd leaf stage, 3 weeks after treatment
Method in brief: (§2)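 Paddy-soil pots flooded to 4 cm water depth were sown and grown in a greenhouse at 25 to 30° C until weeds reached 1st to 2nd leaf stage. A wettable powder diluted in water to a predetermined formulation amount was applied to the water surface. Herbicidal effect was scored 3 weeks after treatment against set criteria.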

Monochoria vaginalis [5] = assay: as above; assay type: in vivo; details: 0.64 g/a, treated at 1st to 2nd leaf stage, 3 weeks after treatment
Method in brief: as §2

Scirpus juncoides [6] = assay: as above; assay type: in vivo; details: 0.64 g/a, treated at 1st to 2nd leaf stage, 3 weeks after treatment
Method in brief: as §2

Echinochloa crus-galli [7] = assay: Herbicidal effect test in submerged condition by treatment before weed-generation (2); assay type: in vivo; details: 0.3 g/a; submerged paddy soil pot, water surface treated on day of sowing; 3 weeks after treatment
Procedure: (§3) Herbicidal Effect Test in Submerged Condition by Treatment Before Weed-Generation (2)
(§4) Paddy surface soil was placed in a plastic pot of 1/10000 are, water was poured therein and mixed. After seeds of Scirpus juncoides were sown, paddy surface soil was added by 2 cm, and submerged with water, and then seeds of Echinochloa crus-galli, Scirpus juncoides, Monochoria vaginalis, Rotala indica and Lindernia pyxidaria were sown together. In addition, rice seedlings at 2.5th leaf stage were transplanted, and fixed to the paddy surface in a state where the roots were exposed on the other side. On the day when the seeds were sown, the wettable powder of the present invention prepared according to Formulation Example 1 was diluted with water so as to give a predetermined formulation amount, and the surface of the water was treated with the diluted wettable powder. The plants were grown by putting the pot in a green house at 25 to 30° C. The herbicidal effect for each plant was investigated 3 weeks after treatment with the herbicide according to the criteria indicated in Test Example 1.

Lindernia pyxidaria = assay: as above; assay type: in vivo; details: 0.3 g/a; submerged paddy soil pot, water surface treated on day of sowing; 3 weeks after treatment
Procedure: as §3, §4

[8] = tested on: transplanted rice (Oryza sativa); assay: as above; assay type: in vivo; details: 0.3 g/a; submerged paddy soil pot, rice seedlings at 2.5th leaf stage transplanted; 3 weeks after treatment
Procedure: as §3, §4

Monochoria vaginalis [9] = assay: as above; assay type: in vivo; details: 0.3 g/a; submerged paddy soil pot, water surface treated on day of sowing; 3 weeks after treatment
Procedure: as §3, §4

Scirpus juncoides [10] = assay: as above; assay type: in vivo; details: 0.3 g/a; submerged paddy soil pot, water surface treated on day of sowing; 3 weeks after treatment
Procedure: as §3, §4

Rotala indica = assay: as above; assay type: in vivo; details: 0.3 g/a; submerged paddy soil pot, water surface treated on day of sowing; 3 weeks after treatment
Procedure: as §3, §4

[11] = tested on: transplanted rice (Oryza sativa); assay: Crop injury test on rice in water leakage condition; assay type: in vivo; details: 0.15 g/a; water leakage 2 cm/day x 3 days; treated on third day after transplantation; 3 weeks after treatment
Procedure: Crop Injury Test on Rice in Water Leakage Condition A mixed soil of alluvial soil and diluvial soil was placed in a plastic pot perforated at the bottom of 1/10000 are, water was poured therein and mixed, and then rice seedlings at 2.5th leaf stage were transplanted. Water leakage treatment was carried out by placing the pot in a plastic vat, and controlling the amount of water in the vat kept at a condition of 2 cm/day×3 days. The pot was put in a green house at 25 to 30° C., on third day after transplantation, the wettable powder of the present invention prepared according to Formulation Example 1 was diluted with water so as to give a predetermined formulation amount, and the surface of the water was treated with the diluted wettable powder. The crop injury on rice was investigated 3 weeks after treatment with the herbicide according to the criteria indicated in Test Example 1.

[12] = tested on: rice transplanted at a depth of 0 cm; assay: Herbicidal effect test in submerged condition by treatment before weed-generation (2); assay type: in vivo, Oryza sativa; details: 0.3 g/a; submerged paddy soil pot, seedlings fixed to paddy surface with roots exposed; 3 weeks after treatment
Procedure: as §3, §4

SMILES: COc1cc(OC)nc(NC(=O)NS(=O)(=O)c2c(C3=NOCCO3)c(C)nn2C)n1 [Comparative Compound 2]
- herbicidal effect, A: Echinochloa crus-galli (Echinochloa crus-galli [1]): 5 (Herbicidal rate 90% or more (almost complete death))
- herbicidal effect, C: Monochoria vaginalis (Monochoria vaginalis [2]): 5 (Herbicidal rate 90% or more (almost complete death))
- herbicidal effect, B: Scirpus juncoides (Scirpus juncoides [3]): 5 (Herbicidal rate 90% or more (almost complete death))
- herbicidal effect, A: Echinochloa crus-galli (Echinochloa crus-galli [4]): 5 (Herbicidal rate 90% or more (almost complete death))
- herbicidal effect, C: Monochoria vaginalis (Monochoria vaginalis [5]): 5 (Herbicidal rate 90% or more (almost complete death))
- herbicidal effect, B: Scirpus juncoides (Scirpus juncoides [6]): 5 (Herbicidal rate 90% or more (almost complete death))
- herbicidal effect, A: Echinochloa crus-galli (Echinochloa crus-galli [7]): 5 (Herbicidal rate 90% or more (almost complete death))
- herbicidal effect, O: Lindernia pyxidaria (Lindernia pyxidaria): 5 (Herbicidal rate 90% or more (almost complete death))
- herbicidal effect, a: transplanted rice (Oryza sativa) [8]: 4 (Herbicidal rate 70% or more and less than 90%)
- herbicidal effect, C: Monochoria vaginalis (Monochoria vaginalis [9]): 5 (Herbicidal rate 90% or more (almost complete death))
- herbicidal effect, B: Scirpus juncoides (Scirpus juncoides [10]): 5 (Herbicidal rate 90% or more (almost complete death))
- herbicidal effect, N: Rotala indica (Rotala indica): 5 (Herbicidal rate 90% or more (almost complete death))
- crop injury on rice, a: transplanted rice (Oryza sativa) [11]: 5 (Herbicidal rate 90% or more (almost complete death))
- herbicidal effect, g: rice transplanted at a depth of 0 cm [12]: 4 (Herbicidal rate 70% or more and less than 90%)
